Entries after “also recorded” stand apart in the source; their conditions may differ. Like-named read-outs stand apart in the source and are kept apart here.
Legend:
[1] = cited from earlier work; for free brain concentration / free plasma concentration / Cerebrospinal fluid (CSF) concentration: 10 mg/kg oral; for brain concentration / plasma concentration: 40 mg/kg i.p.
[2] = molecular target: T1, human KCa3.1 (Homo sapiens, UniProt O15554); conditions: human KCa3.1 expressed in recombinant cells; read-out: In-vitro IC50 (nM)*; cited from earlier work
T1 construct: expressed in transfected cells

[3] = system: mechanical hypersensitivity induced by peripheral nerve injury; conditions: rat, 10, 30 and 100 mg/kg p.o., only the highest dose significant; cited from earlier work
[4] = system: sickle cell disease; conditions: Phase 2, 10 mg/day, sickle cell patients; cited from earlier work
[5] = system: cytochrome P450-dependent enzymes; conditions: cited from earlier work
[6] = Pharmacokinetics and CNS penetration in mouse; assay type: in vivo
Experimental: Since experimental surgery-related inflammation is resolved seven days […] the animals are tested, it supported the hypothesis that the efficacy was mediated by inhibition of KCa3.1 on microglia in the spinal cord or brain rather than peripheral immune cells. […] Based on the rat and mouse pharmacokinetic data CNS penetrance in humans seems promising.

[7] = system: ~70 additional neuronal drug targets (50 neuronal receptors, 8 enzymes, 5 transporters and 7 ion channels); conditions: cited from earlier work
[8] = system: locomotor activity; conditions: rat, doses required for efficacy in the chronic constriction injury model; cited from earlier work
[9] = clinical trials, healthy volunteers and sickle cell patients; cited from earlier work
[10] = system: sickle cell disease; conditions: Phase 3, sickle cell patients, cited from earlier work
[11] = clinical trials; cited from earlier work
[12] = system: primary rat cortical microglia; assay: NO (nitrite) release from LPS-treated primary microglia; assay type: cell-based; conditions: LPS 3 EU/ml, 24 hours
Experimental: (§1) FIG. 4A and FIG. 4B. Effect of KCa3.1 inhibition on NO and IL-1β release from primary microglia. […] (B) Primary rat cortical microglia were incubated with LPS (3 EU/ml) for 24 hours to induce expression of IL-1β.
(§2) After 24 hours, media was assayed for nitrite (stable metabolite of NO). […] Primary rat cortical microglia were also treated with LPS (3 EU/ml, 3 hours) to stimulate the production of pro-IL-1β.

[13] = system: primary rat cortical microglia; assay: IL-1β release from primary microglia; assay type: cell-based
Experimental: as §1, §2

[14] = molecular target: T2, human CYP2B6 (Homo sapiens, UniProt P20813); conditions: cited from earlier work
T2 sequence (P20813 1-491): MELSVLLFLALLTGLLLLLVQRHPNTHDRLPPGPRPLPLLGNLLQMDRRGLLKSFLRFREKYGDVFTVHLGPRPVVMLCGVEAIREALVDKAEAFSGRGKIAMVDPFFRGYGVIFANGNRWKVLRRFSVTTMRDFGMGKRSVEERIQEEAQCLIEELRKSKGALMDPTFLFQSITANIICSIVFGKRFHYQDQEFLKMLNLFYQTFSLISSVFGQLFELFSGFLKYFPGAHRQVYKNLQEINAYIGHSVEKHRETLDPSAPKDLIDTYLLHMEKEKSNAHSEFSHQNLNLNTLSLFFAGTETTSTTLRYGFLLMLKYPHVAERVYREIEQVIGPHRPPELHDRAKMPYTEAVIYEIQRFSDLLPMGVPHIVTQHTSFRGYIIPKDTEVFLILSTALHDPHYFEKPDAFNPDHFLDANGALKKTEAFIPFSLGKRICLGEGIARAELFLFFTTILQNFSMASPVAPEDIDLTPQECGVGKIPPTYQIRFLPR

[15] = molecular target: human CYP3A4 (Homo sapiens, UniProt P08684); conditions: cited from earlier work
human CYP3A4, sequence (P08684 whole entry): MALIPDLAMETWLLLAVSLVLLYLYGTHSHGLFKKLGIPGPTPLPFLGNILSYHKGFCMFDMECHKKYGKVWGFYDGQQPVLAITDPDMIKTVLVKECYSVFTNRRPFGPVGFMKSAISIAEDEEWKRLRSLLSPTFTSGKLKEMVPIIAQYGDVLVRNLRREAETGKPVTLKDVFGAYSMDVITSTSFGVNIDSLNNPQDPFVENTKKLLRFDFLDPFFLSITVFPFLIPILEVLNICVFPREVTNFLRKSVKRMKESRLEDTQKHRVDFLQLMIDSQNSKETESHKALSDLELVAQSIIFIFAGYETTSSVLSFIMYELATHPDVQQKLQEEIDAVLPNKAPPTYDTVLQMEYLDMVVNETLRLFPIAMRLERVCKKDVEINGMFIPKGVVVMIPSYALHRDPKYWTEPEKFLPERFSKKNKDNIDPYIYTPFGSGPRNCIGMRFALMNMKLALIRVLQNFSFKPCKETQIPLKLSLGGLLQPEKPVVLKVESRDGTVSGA

[16] = system: ischemic stroke; conditions: rat, cited from earlier work
[17] = primates; cited from earlier work
[18] = molecular target: human CYP2C19 (Homo sapiens, UniProt P33261); conditions: cited from earlier work
human CYP2C19, sequence (P33261 whole entry): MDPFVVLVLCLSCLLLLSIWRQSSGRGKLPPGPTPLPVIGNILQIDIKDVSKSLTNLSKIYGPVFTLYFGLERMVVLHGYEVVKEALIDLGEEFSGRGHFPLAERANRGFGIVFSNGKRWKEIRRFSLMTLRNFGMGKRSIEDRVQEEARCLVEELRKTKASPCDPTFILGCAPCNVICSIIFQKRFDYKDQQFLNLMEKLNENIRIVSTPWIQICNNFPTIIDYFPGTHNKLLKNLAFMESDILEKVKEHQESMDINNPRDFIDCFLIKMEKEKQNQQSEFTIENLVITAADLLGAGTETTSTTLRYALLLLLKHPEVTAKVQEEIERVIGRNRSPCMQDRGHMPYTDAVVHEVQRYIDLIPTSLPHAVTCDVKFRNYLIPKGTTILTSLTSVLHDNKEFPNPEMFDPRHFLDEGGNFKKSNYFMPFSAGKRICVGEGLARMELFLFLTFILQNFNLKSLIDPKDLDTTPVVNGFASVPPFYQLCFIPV

[19] = system: non-selective cation current in primary microglia; conditions: primary microglia stimulated with LPC; cited from earlier work

For `O=C1CSc2ccccc2N1Cc1cccc(C(F)(F)F)c1` [NS6180, 4-[[3-(trifluoromethyl)phenyl]methyl]-2H-1,4-benzothiazin-3(4H)-one], the “Cmax-Total (nM) Plasma” value ([1]; rat, 10 mg/kg p.o.) is given as 186 nM, the “T½” value ([1]; rat, 10 mg/kg p.o.) is given as 3.8 h and the IC50 [2] is given as 9.4 nM.
For `NC(=O)C(c1ccccc1)(c1ccc(F)cc1)c1ccc(F)cc1` [Senicapoc, senicapoc], the mechanical hypersensitivity [3] is listed as “attenuated”, the “hematocrit and hemoglobin levels” value [4] is listed as “significantly increased” and the hemolysis [4] is listed as “reduced”. The free brain concentration ([1]; rat, four hours post-dose) was 0.136 µM, the free plasma concentration ([1]; rat, four hours post-dose) was 0.065 µM and the “Cerebrospinal fluid (CSF) concentration” value ([1]; rat, four hours post-dosing) was 121 nM. The free brain concentration ([1]; rat, one hour post-dose) was 0.037 µM, the free plasma concentration ([1]; rat, one hour post-dose) was 0.017 µM and the “Cerebrospinal fluid (CSF) concentration” value ([1]; rat, one hour post-dosing) was 25 nM. For the same compound, the “Cmax-Unbound (nM) CSF” value ([1]; rat, 10 mg/kg p.o., CSF) was 121 nM, the “Cmax-Total (nM) Brain” value ([1]; rat, 10 mg/kg p.o.) was 17,000 nM and the “Cmax-Unbound (nM) Brain” value ([1]; rat, 10 mg/kg p.o.) was 136 nM. For the same compound, the “Cmax-Total (nM) Plasma” value ([1]; rat, 10 mg/kg p.o.) was 2,400 nM, the “Cmax-Unbound (nM) Plasma” value ([1]; rat, 10 mg/kg p.o.) was 65 nM and the “T½” value ([1]; rat, 10 mg/kg p.o.) was 1 h. The “% unbound Plasma” value ([1]; rat) was 2.7%, the blood-brain barrier crossing ([1]; rat) was “cross the blood-brain barrier” and the “effect on cytochrome P450-dependent enzymes” value [5] was “does not suffer from metabolic instability or effects on cytochrome P450”. The “brain versus plasma levels” value [6] was “higher levels in brain than plasma”, the “Cmax-Total (nM) Plasma” value ([6]; 10 mg/kg p.o., plasma) was 709 nM and the fraction unbound ([6]; brain, read-out: % unbound Brain) was 0.008. For the same compound, the Tmax ([6]; in vivo, po, 10 mg/kg p.o.) was 0.33 h, the half-life ([6]; in vivo, po, 10 mg/kg p.o., read-out: T½ (converted)) was 3.1 h and the fraction unbound ([6]; plasma, read-out: % unbound Plasma) was 0.015. For the same compound, the “inhibition of ~70 additional neuronal drug targets” value ([7]; 1 μM) was “None of the targets tested was inhibited”, the off target effects ([7]; at concentrations that block KCa3.1) was “no known off target effects” and the locomotor activity [8] was “did not observe any significant impact; also recorded: did not alter activity”. The “tolerability / side effects in humans” value [9] was “without any significant side effects; also recorded: well tolerated; also recorded: safe and has a low incidence of side effects”, the “pain outcome measures (vaso-occlusive / painful crises)” value [10] was “no improvement” and the “pain outcome measures (vaso-occlusive / painful crises)” value ([10]; listed as senicapoc) was “no effect”. The t1/2 in humans [11] was 552 h, the IC50 ([12]; average) was 39 nM and the EC50 ([12]; representative experiment (n=3), read-out: EC50, production of NO (nitrite)) was 0.9 nM. It also gave an IC50 ([13]; LPS 3 EU/ml 3 hours, then BzATP 1 mM) of 15 nM and an IC50 ([13]; figure legend: LPS 3 EU/ml for 24 hours (n=3)) of 1.3 nM.
For `Clc1ccccc1C(c1ccccc1)(c1ccccc1)n1cccn1` [TRAM-34], the “Cmax-Total (nM) Brain” value ([1]; rat, 10 mg/kg p.o.) is listed as about 2500 nM, the “Cmax-Unbound (nM) Brain” value ([1]; rat, 10 mg/kg p.o.) is listed as 50 nM and the “Cmax-Total (nM) Plasma” value ([1]; rat, 10 mg/kg p.o.) is listed as about 2500 nM. The “Cmax-Unbound (nM) Plasma” value ([1]; rat, 10 mg/kg p.o.) was 50 nM, the “Tmax” value ([1]; rat, 10 mg/kg p.o.) was 0.5 to 1 h and the “T½” value ([1]; rat, 10 mg/kg p.o.) was about 2 h. For the same compound, the brain concentration ([1]; rat, 8 hours) was about 1 µM, the plasma concentration ([1]; rat, 8 hours) was about 1 µM and the brain concentration ([1]; rat, 12 hours) was 0.4 µM. For the same compound, the plasma concentration ([1]; rat, 12 hours) was 0.4 µM, the “% unbound Plasma” value ([1]; rat) was 2% and the “% unbound in plasma” value ([1]; rat) was “approximately 2%”. For the same compound, the half-life ([1]; rats) was about 2 h, the “effect on cytochrome P450-dependent enzymes” value [5] was “no effect” and the “IC50, CYP2B6” value [14] was “low micromolar range”. For the same compound, the “IC50, CYP3A4” value [15] was “low micromolar range”, the neuronal loss ([16]; 10 and 40 mg/kg i.p.) was “significantly attenuated” and the “post stroke infarct volume” value ([16]; 10 and 40 mg/kg i.p.) was “significantly attenuated”. The “outcome when given 12 hours after the ischemic insult” value ([16]; given 12 hours after insult) was “improved the outcome”, the “extent of microglial ED1 staining” value [16] was “significantly reduced” and the neurological deficit score [16] was “improved”. For the same compound, the half-life [17] was about 2 h and the “IC50, CYP2C19” value [18] was “low micromolar range”.
In the case of charybdotoxin, the “effect on LPC signals” value [19] is listed as “no effect”.

Source: patent US12186286B2 (Paracelsus Neuroscience II, LLC, priority 2019, dated 2025)
